Converted amounts (≈) assume the structure as drawn.
Assays:
clinical = settings: human, in vivo
Protocol: (§1) The phase I/IIa study was designed to evaluate safety and tolerability, pharmacokinetics (PK), food effect, and antiviral activity with regard to the Compound. The key safety parameters that were evaluated in the trial include adverse events (AEs), physical examination, vital signs, 12-lead electrocardiogram (ECG), and standard safety laboratory tests. The key antiviral activity parameters that were evaluated in the trial include changes in plasma HCV RNA and emergence of resistance mutations. The key pharmacokinetic parameters that were evaluated in the trial include plasma and urine concentrations of the Compound.
(§2) In the phase I/IIa study, plasma HCV RNA was quantitated using a validated commercial assay (COBAS® TAQMAN®) with a lower limit of quantitation of 25 IU/mL. HCV RNA genotyping was performed at Baseline using the Versant HCV Genotype Assay (LiPA) 2.0.
(§3) In Group B, the Compound was evaluated in an open-label, single day study in 18 subjects with chronic HCV Genotype 1, 2, or 3 infection. […] For all cohorts, dosing was under fasted in this study.

HCV Genotype 2 = assay: Phase I/IIa Group D: HCV RNA reduction, 3-day dosing, Genotype 2; assay type: in vivo, hepatitis C virus; settings: for Mean (Range) Maximal HCV RNA Reduction from Baseline: n = 4
Protocol: as §1, §2
(§4) In Group D, the Compound was evaluated in an randomized, double-blind, placebo-controlled, parallel dosing study in 30 treatment-naive, genotypes 2, 3, and 4 HCV-infected subjects.
(§5) For all cohorts, dosing was under fasted in this study.

HCV Genotype 3 [1] = assay: Phase I/IIa Group B: plasma HCV RNA reduction after single dose, Genotype 3; assay type: in vivo, hepatitis C virus; settings: 1 subject
Protocol: as §1, §2, §3

HCV Genotype 1, 2, and 3 = assay: Phase I/IIa Group B: antiviral activity of single dose across genotypes; assay type: in vivo, hepatitis C virus; settings: Genotype 1, 2, and 3 HCV-infected subjects
Protocol: as §1, §2, §3

HCV Genotype 1b = assay: Phase I/IIa Group C: HCV RNA reduction, 3-day dosing, Genotype 1b; assay type: in vivo, hepatitis C virus
Protocol: as §1, §2
In Group C, the Compound was evaluated in a randomized, double-blind, placebo-controlled, parallel dosing study in 34 treatment-naive, genotype 1 HCV-infected subjects.
as §5

HCV Genotype 4 = assay: Phase I/IIa Group D: HCV RNA reduction, 3-day dosing, Genotype 4; assay type: in vivo, hepatitis C virus; settings: n = 4
Protocol: as §1, §2, §4, §5

HCV Genotype 3 [2] = assay: Phase I/IIa Group D: HCV RNA reduction, 3-day dosing, Genotype 3; assay type: in vivo, hepatitis C virus; settings: n = 4
Protocol: as §1, §2, §4, §5

[3] = in vivo
Protocol: as §1
The Compound was first evaluated in a randomized, double-blind, placebo-controlled, sequential dose escalation study in 48 healthy subjects. For each cohort, there were 6 subjects to receive the Compound and 2 subjects to receive placebo. Except cohort 5a, the Compound was administered under fasted conditions.
as §3

[4] = test system: least susceptible HCV genotype; assay: Protein-binding adjusted EC90; assay type: cell-based; settings: Hepatitis C virus, read-out: protein-binding adjusted EC90

`COC(=O)N[C@H](C(=O)N1CCC[C@H]1c1nc2cc(-c3csc4c(-c5ccc(-c6cnc([C@@H]7CCCN7C(=O)[C@H](NC(=O)OC)c7ccccc7)[nH]6)cc5)csc34)ccc2[nH]1)C(C)C` [the Compound, [(S)-1-((S)-2-{6-[6-(4-{(S)-2-[1-((R)-2-methoxycarbonylamino-2-phenyl-acetyl)-pyrrolidin-2-yl]-3H-imidazol-4-yl}-phenyl)-thieno[3,2-b]thiophen-3-yl]-1H-benzoimidazol-2-yl}-pyrrolidine-1-carbonyl)-2-methyl-propyl]-carbamic acid methyl ester] showed a half-life (clinical; 1 mg) of 13 ± 6 h, an AUC(0-inf) (clinical; 5 mg) of 39 ± 14.5 ng·h/mL and a Cmax (clinical; 5 mg) of 2.2 ± 1.1 ng/mL. For the same compound, the Tmax (clinical; 5 mg) was 4 h, the half-life (clinical; 5 mg) was 13 ± 0.5 h and the AUC(0-inf) (clinical; 10 mg) was 188 ± 3.7 ng·h/mL. The Cmax (clinical; 10 mg) was 9 ± 1.2 ng/mL, the Tmax (clinical; 10 mg) was 3 h and the half-life (clinical; 10 mg) was 24 ± 5.9 h. The AUC(0-inf) (clinical; 25 mg) was 216 ± 80.6 ng·h/mL, the Cmax (clinical; 25 mg) was 13.8 ± 3.8 ng/mL and the Tmax (clinical; 25 mg) was 3.5 h. It also gave a half-life (clinical; 25 mg) of 18 ± 3.8 h, an AUC(0-inf) (clinical; 50 mg) of 576 ± 299 ng·h/mL and a Cmax (clinical; 50 mg) of 35.2 ± 16.5 ng/mL. The Tmax (clinical; 50 mg) was 4 h, the half-life (clinical; 50 mg) was 22 ± 1.8 h and the AUC(0-inf) (clinical; 100 mg) was 1340 ± 282 ng·h/mL. It also gave a Cmax (clinical; 100 mg) of 95 ± 20.4 ng/mL, a Tmax (clinical; 100 mg) of 4 h and a half-life (clinical; 100 mg) of 19 ± 2 h. For the same compound, the “Mean (Range) Maximal HCV RNA Reduction from Baseline” value (HCV Genotype 2; 50 mg BID x 3 days) was 2.0 (0.5-4.0) log10 IU/mL, the “Mean (Range) Maximal HCV RNA Reduction from Baseline” value (HCV Genotype 2; 100 mg QD x 3 days) was 2.0 (0.3-4.1) log10 IU/mL and the “Mean Max Viral Load Response” value (HCV Genotype 2; subjects with L31 at BL, L31M at Day 4, 2 subjects) was −2.83 log10 IU/mL. The “Mean Max Viral Load Response” value (HCV Genotype 2; subjects with L31 at BL, low VL at Day 4 (<1,000 IU/mL), 2 subjects) was −4.06 log10 IU/mL, the “Mean Max Viral Load Response” value (HCV Genotype 2; subjects with M31 at BL, 3 subjects) was −0.45 log10 IU/mL and the “mean maximal viral load reduction” value (HCV Genotype 2; total daily dose of 100 mg for 3 days) was 2.0 log10 IU/mL. The “Maximum Viral Load Reduction after Single Dose” value (shortened to “Maximum Viral Load Reduction”) (HCV Genotype 3 [1]; 25 mg single dose) was 2.2 log10 IU/mL, the “Maximum Viral Load Reduction” value (HCV Genotype 3 [1]; 50 mg single dose) was 3.7 log10 IU/mL and the “Maximum Viral Load Reduction” value (HCV Genotype 3 [1]; 100 mg single dose) was 3.3 log10 IU/mL. For the same compound, the antiviral activity (HCV Genotype 1, 2, and 3) was “potent pan-genotypic antiviral activity”, the “Mean (Range) Maximal HCV RNA Reduction from Baseline” value (HCV Genotype 1b; 25 mg QD x 3 days, n = 3) was 3.0 (2.0-4.2) log10 IU/mL and the “Mean (Range) Maximal HCV RNA Reduction from Baseline” value (HCV Genotype 1b; 50 mg QD x 3 days, n = 2) was 4.3 (4.1-4.5) log10 IU/mL. For the same compound, the “Mean (Range) Maximal HCV RNA Reduction from Baseline” value (HCV Genotype 4; 50 mg BID x 3 days) was 3.9 (3.4-4.5) log10 IU/mL, the “Mean (Range) Maximal HCV RNA Reduction from Baseline” value (HCV Genotype 4; 100 mg QD x 3 days) was 3.6 (2.3-4.6) log10 IU/mL and the “Mean (Range) Maximal HCV RNA Reduction from Baseline” value (HCV Genotype 3 [2]; 50 mg BID x 3 days) was 3.3 (2.5-4.6) log10 IU/mL. For the same compound, the “Mean (Range) Maximal HCV RNA Reduction from Baseline” value (HCV Genotype 3 [2]; 100 mg QD x 3 days) was 3.4 (3.1-3.8) log10 IU/mL, the dose-limiting toxicity [3] was “no subject met protocol-defined criteria for a dose-limiting toxicity” and the “intensity of adverse events” value [3] was “mild to moderate”. It also gave an EC90 [4] of about 2.3 ng/mL (≈ 2.6 nM).
